From ChEMBL document CHEMBL1201862, “PubChem BioAssay data set” (2004)
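These data come from cells grown in 96-well plates and exposed to compound for 48 hours at five concentrations. GI50 is the concentration that inhibits growth by half.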 Calls of active or inactive are those of the source. Cut-off read from the data, not from the text of the source: active = GI50 up to about 1.1 µM and inactive = higher.

Assays:
Experiment in all cases: NCI-60 cell line screen, 48 h
COLO 205 = tested on: COLO 205
OVCAR-3 = tested on: OVCAR-3
MCF7 = tested on: MCF7
ACHN = tested on: ACHN
OVCAR-5 = tested on: OVCAR-5
NCI/ADR-RES = tested on: NCI/ADR-RES
NCI-H522 = tested on: NCI-H522
HOP-62 = tested on: HOP-62
A498 = tested on: A498
HCT-116 = tested on: HCT-116
SK-MEL-5 = tested on: SK-MEL-5
EKVX = tested on: EKVX
CAKI-1 = tested on: CAKI-1
TK-10 = tested on: TK-10
A549 = tested on: A549
SF-295 = tested on: SF-295
MDA-MB-435 = tested on: MDA-MB-435
SF-268 = tested on: SF-268
SR = tested on: SR
HOP-92 = tested on: HOP-92
T47D = tested on: T47D
SF-539 = tested on: SF-539
SK-MEL-28 = tested on: SK-MEL-28
UO-31 = tested on: UO-31
U-251 = tested on: U-251
MDA-N = tested on: MDA-N
OVCAR-8 = tested on: OVCAR-8
MDA-MB-231 = tested on: MDA-MB-231
UACC-62 = tested on: UACC-62
HL-60 = tested on: HL-60
SN12C = tested on: SN12C
SNB-19 = tested on: SNB-19
Hs-578T = tested on: Hs-578T
CCRF-CEM = tested on: CCRF-CEM
KM12 = tested on: KM12
NCI-H460 = tested on: NCI-H460
SW-620 = tested on: SW-620
K562 = tested on: K562
SK-MEL-2 = tested on: SK-MEL-2
HCT-15 = tested on: HCT-15
IGROV-1 = tested on: IGROV-1
MOLT-4 = tested on: MOLT-4
HCC 2998 = tested on: HCC 2998
786-0 = tested on: 786-0
UACC-257 = tested on: UACC-257
Malme-3M = tested on: Malme-3M
RPMI-8226 = tested on: RPMI-8226
DU-145 = tested on: DU-145
HT-29 = tested on: HT-29
NCI-H23 = tested on: NCI-H23
BT-549 = tested on: BT-549
OVCAR-4 = tested on: OVCAR-4
LOX IMVI = tested on: LOX IMVI
SK-OV-3 = tested on: SK-OV-3
NCI-H226 = tested on: NCI-H226

Q: With `Cc1ccc(Cc2n[nH]c(=O)n2Nc2ccccc2)cc1` as the compound, how does the GI50 (COLO 205) read?
A: Its GI50 is > 100 µM (inactive).

Q: And the GI50 (OVCAR-3)?
A: Its GI50 is > 100 µM (inactive).

Q: What about the GI50 (MCF7) of the same compound?
A: Its GI50 is > 100 µM (inactive).

Q: And the GI50 (ACHN)?
A: Its GI50 is > 100 µM (inactive).

Q: And the GI50 (OVCAR-5)?
A: Its GI50 is > 100 µM (inactive).

Q: What about the GI50 (NCI/ADR-RES) of the same compound?
A: Its GI50 is > 100 µM (inactive).

Q: And the GI50 (NCI-H522)?
A: The GI50 was > 100 µM (inactive).

Q: What about the GI50 (HOP-62) of the same compound?
A: The GI50 was > 100 µM (inactive).

Q: And the GI50 (A498)?
A: Its GI50 is > 100 µM (inactive).

Q: And the GI50 (HCT-116)?
A: The GI50 was > 100 µM (inactive).

Q: What about the GI50 (SK-MEL-5) of the same compound?
A: Its GI50 is > 100 µM (inactive).

Q: What about the GI50 (EKVX) of the same compound?
A: The GI50 was 81.5 µM (inactive).

Q: And the GI50 (CAKI-1)?
A: The GI50 was > 100 µM (inactive).

Q: What about the GI50 (TK-10) of the same compound?
A: Its GI50 is > 100 µM (inactive).

Q: And the GI50 (A549)?
A: The GI50 was > 100 µM (inactive).

Q: And the GI50 (SF-295)?
A: Its GI50 is > 100 µM (inactive).

Q: And the GI50 (MDA-MB-435)?
A: The GI50 was > 100 µM (inactive).

Q: What about the GI50 (SF-268) of the same compound?
A: The GI50 was > 100 µM (inactive).

Q: And the GI50 (SR)?
A: Its GI50 is > 100 µM (inactive).

Q: And the GI50 (HOP-92)?
A: Its GI50 is 65.2 µM (inactive).

Q: And the GI50 (T47D)?
A: Its GI50 is 89.9 µM (inactive).

Q: What about the GI50 (SF-539) of the same compound?
A: The GI50 was > 100 µM (inactive).

Q: What about the GI50 (SK-MEL-28) of the same compound?
A: The GI50 was 92.3 µM (inactive).

Q: What about the GI50 (UO-31) of the same compound?
A: Its GI50 is 68.2 µM (inactive).

Q: What about the GI50 (U-251) of the same compound?
A: The GI50 was > 100 µM (inactive).

Q: And the GI50 (MDA-N)?
A: Its GI50 is > 100 µM (inactive).

Q: And the GI50 (OVCAR-8)?
A: The GI50 was > 100 µM (inactive).

Q: And the GI50 (MDA-MB-231)?
A: The GI50 was > 100 µM (inactive).

Q: And the GI50 (UACC-62)?
A: Its GI50 is > 100 µM (inactive).

Q: And the GI50 (HL-60)?
A: The GI50 was > 100 µM (inactive).

Q: What about the GI50 (SN12C) of the same compound?
A: Its GI50 is > 100 µM (inactive).

Q: What about the GI50 (SNB-19) of the same compound?
A: Its GI50 is > 100 µM (inactive).

Q: What about the GI50 (Hs-578T) of the same compound?
A: Its GI50 is > 100 µM (inactive).

Q: What about the GI50 (CCRF-CEM) of the same compound?
A: The GI50 was > 100 µM (inactive).

Q: What about the GI50 (KM12) of the same compound?
A: The GI50 was > 100 µM (inactive).

Q: And the GI50 (NCI-H460)?
A: The GI50 was > 100 µM (inactive).

Q: What about the GI50 (SW-620) of the same compound?
A: The GI50 was > 100 µM (inactive).

Q: What about the GI50 (K562) of the same compound?
A: Its GI50 is > 100 µM (inactive).

Q: What about the GI50 (SK-MEL-2) of the same compound?
A: The GI50 was > 100 µM (inactive).

Q: And the GI50 (HCT-15)?
A: Its GI50 is greater than 100 µM.

Q: And the GI50 (IGROV-1)?
A: Its GI50 is > 100 µM (inactive).

Q: What about the GI50 (MOLT-4) of the same compound?
A: Its GI50 is > 100 µM (inactive).

Q: What about the GI50 (HCC 2998) of the same compound?
A: Its GI50 is > 100 µM (inactive).

Q: What about the GI50 (786-0) of the same compound?
A: Its GI50 is > 100 µM (inactive).

Q: And the GI50 (UACC-257)?
A: Its GI50 is > 100 µM (inactive).

Q: What about the GI50 (Malme-3M) of the same compound?
A: Its GI50 is > 100 µM (inactive).

Q: And the GI50 (RPMI-8226)?
A: The GI50 was > 100 µM (inactive).

Q: What about the GI50 (DU-145) of the same compound?
A: Its GI50 is > 100 µM (inactive).

Q: What about the GI50 (HT-29) of the same compound?
A: The GI50 was > 100 µM (inactive).

Q: And the GI50 (NCI-H23)?
A: The GI50 was > 100 µM (inactive).

Q: And the GI50 (BT-549)?
A: Its GI50 is > 100 µM (inactive).

Q: What about the GI50 (OVCAR-4) of the same compound?
A: The GI50 was > 100 µM (inactive).

Q: What about the GI50 (LOX IMVI) of the same compound?
A: Its GI50 is > 100 µM (inactive).

Q: What about the GI50 (SK-OV-3) of the same compound?
A: Its GI50 is > 100 µM (inactive).

Q: And the GI50 (NCI-H226)?
A: Its GI50 is > 100 µM (inactive).
